Like-named read-outs stand apart in the source and are kept apart here.

For assay [1], the system named is Wnt/β-catenin transcription. Description: Wnt-3A-stimulated TOPFlash reporter assay in HEK293 cells. In kind it is cell-based. To be noted: for IC50: Wnt-3A conditioned medium, 8 hour treatment, read-out: Inhibition Wnt/β-catenin transcription TopFlash IC50. As to the method: Stably transfected cells were seeded in 100 μl of cell growth medium/well in 96-well plates at 100% confluency. Fifty microliters of Wnt-3A conditioned medium containing the chemical compounds to be tested or DMSO was added to each well. After an 8 hour treatment, the cells were washed once with PBS and lysed with 55 μl of Passive Lysis Buffer supplied in the Dual-Luciferase Reporter Assay kit (Promega, Madison, Wis.). Twenty-five microliters of cell lysate was used for measuring luciferase activity in a 96-well plate reader (FluoStar Optima, BMG Labtech, Chicago, Ill.). Data were fit using GraphPad Prism (mean±SEM, n>=2).
For orientation: A reporter such as luciferase makes a cellular process visible.

The target of a further assay is T1, Frizzled1-GFP (Homo sapiens, UniProt Q9UP38).
T1 construct: expressed in transfected cells
Description: Frizzled internalization assay (Fzd1-GFP). To be noted: 6 hours, 0-5 point scale. In kind it is cell-based. Also noted: key: Punctate similar to control=0; trace amount of punctate greater than control=1; moderate=3; strong=5. As to the method:
The Fzd1-GFP assay was performed following a procedure similar to previously published work (Chen, M. Y.; Wang, J. B.; Lu, J. Y.; Bond, M. C.; Ren, X. R.; Lyerly, H. K.; Barak, L. S.; Chen, W. Biochemistry 2009, 48, 10267). Cells stably expressing Frizzled1-GFP plated in confocal dishes were treated, after 24 hours, with 12.5 μM of test compound or DMSO for 6 hours at 37° C. followed by fixation with 4% paraformaldehyde. The cells were then examined by microscopy using a LSM 510-Meta confocal microscope (Carl Zeiss, Thornwood, N.Y., USA) equipped with 40× and 100× apo chromat objectives. YFP was excited using a 488-nm argon laser line. Images were processed using the LSM software Image Browser (CarlZeiss, Thornwood, N.Y., USA). Plates were read twice in blinded fashion using a 0-5 point scale. ^aPunctate similar to control=0, trace amount of punctate greater than control=1, moderate=3, strong=5.

T1 sequence (Q9UP38 70-647): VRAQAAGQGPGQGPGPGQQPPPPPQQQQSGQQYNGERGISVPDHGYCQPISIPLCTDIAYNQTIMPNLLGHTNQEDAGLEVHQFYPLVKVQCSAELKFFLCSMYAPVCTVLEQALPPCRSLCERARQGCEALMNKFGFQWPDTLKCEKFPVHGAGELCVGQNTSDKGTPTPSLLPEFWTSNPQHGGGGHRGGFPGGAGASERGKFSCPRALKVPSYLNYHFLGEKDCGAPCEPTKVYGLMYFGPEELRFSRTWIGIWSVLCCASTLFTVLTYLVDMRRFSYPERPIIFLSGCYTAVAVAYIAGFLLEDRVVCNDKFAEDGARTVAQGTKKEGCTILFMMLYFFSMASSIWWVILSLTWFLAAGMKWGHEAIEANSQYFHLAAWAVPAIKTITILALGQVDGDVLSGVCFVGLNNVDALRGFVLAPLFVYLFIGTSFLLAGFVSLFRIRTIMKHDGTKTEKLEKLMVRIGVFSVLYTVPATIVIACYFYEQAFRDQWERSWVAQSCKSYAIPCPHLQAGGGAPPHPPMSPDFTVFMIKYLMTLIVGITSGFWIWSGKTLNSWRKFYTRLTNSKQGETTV

As for `O=C(NCc1ccc(C(F)(F)F)cc1)c1cc(Cl)ccc1O` [Compound 25, 5-chloro-2-hydroxy-N-(4-(trifluoromethyl)benzyl)benzamide], in assay [1] (Homo sapiens, HEK293, 8 h), the IC50 is 15.1 ± 1.4 µM. Besides, at Frizzled1-GFP, the “Fzd1-GFP internalization @12.5 μM” value is reported as 0.

Regarding `O=C(Nc1ccc(Cl)c(Cl)c1)c1cc(Cl)ccc1O` [Compound 17, 5-chloro-N-(3,4-dichlorophenyl)-2-hydroxybenzamide], the IC50 in assay [1] (Homo sapiens, HEK293) is 0.73 ± 0.13 µM. For the same compound, on Frizzled1-GFP, the “Fzd1-GFP internalization @12.5 μM” value is recorded as 5. The like results for `CC(=O)Oc1ccc(Cl)cc1C(=O)Nc1ccc(C(F)(F)F)cc1Cl` [Compound 59, 4-Chloro-2-((2-chloro-4-(trifluoromethyl)phenyl)carbamoyl)phenyl acetate] were, in that order, 0.32 ± 0.03 µM and 5. Consider `O=C(NC(=O)c1cc(Cl)ccc1O)c1ccc(C(F)(F)F)cc1` [Compound 57, 5-Chloro-2-hydroxy-N-(4-(trifluoromethyl)benzoyl)benzamide], for which, in assay [1] (Homo sapiens, HEK293, 8 h), the IC50 is greater than 12 µM. Also, the “Fzd1-GFP internalization @12.5 μM” value at Frizzled1-GFP was 0. In the case of `O=C(Nc1ccc(F)c(Cl)c1)c1cc(Cl)ccc1O` [Compound 23, 5-chloro-N-(3-chloro-4-fluorophenyl)-2-hydroxybenzamide], in assay [1] (Homo sapiens, HEK293, 8 h), the IC50 amounted to 1.21 ± 0.17 µM. Besides, the “Fzd1-GFP internalization @12.5 μM” value on Frizzled1-GFP is on record as 5. Consider `CS(=O)(=O)c1ccc(NC(=O)c2cc(Cl)ccc2O)c(Cl)c1` [Compound 5, 5-chloro-N-(2-chloro-4-(methylsulfonyl)phenyl)-2-hydroxybenzamide], for which the IC50 in assay [1] (Homo sapiens, HEK293, 8 h) was determined as 7.66 µM. In addition, the “Fzd1-GFP internalization @12.5 μM” value on Frizzled1-GFP came out at 0. `O=C(Nc1cc(Cl)cc(Cl)c1)c1cc(Cl)ccc1O` [Compound 16, 5-chloro-N-(3,5-dichlorophenyl)-2-hydroxybenzamide]: the IC50 in assay [1] (Homo sapiens, HEK293, 8 h) is 0.7 ± 0.13 µM. The “Fzd1-GFP internalization @12.5 μM” value on Frizzled1-GFP came to 5. Regarding `NC(=O)c1ccc(NC(=O)c2cc(Cl)ccc2O)cc1` [Compound 4, N-(4-carbamoylphenyl)-5-chloro-2-hydroxybenzamide], in assay [1] (Homo sapiens, HEK293, 8 h), the IC50 was greater than 12 µM. Further, the “Fzd1-GFP internalization @12.5 μM” value on Frizzled1-GFP worked out at 0. The matching figures for `O=C(Nc1ccc(Cl)cc1)c1cc(Cl)ccc1O` [Compound 11, 5-chloro-N-(4-chlorophenyl)-2-hydroxybenzamide]: 1.3 ± 0.18 µM and 0. As usually defined, the inhibition is the percentage by which the read-out fell short of the control. With `C#CCCCCOc1cc([N+](=O)[O-])ccc1NC(=O)c1cc(Cl)ccc1O` [Compound 39, 5-chloro-N-(2-(hex-5-yn-1-yloxy)-4-nitrophenyl)-2-hydroxybenzamide], testing at 2 µM in assay [1] (Homo sapiens, HEK293, 8 h) gave an inhibition of 80%. In the case of `O=C(Nc1ccc(C(F)(F)F)cc1Br)c1cc(Cl)ccc1O` [Compound 28, N-(2-bromo-4-(trifluoromethyl)phenyl)-5-chloro-2-hydroxybenzamide], the “Inhibition Wnt/β-catenin transcription TopFlash, % inhibition @ 1 μM” value in assay [1] worked out at 82% inhibition. Turning to `O=C(Nc1ccc(F)cc1Cl)c1cc(Cl)ccc1O` [Compound 22, 5-chloro-N-(2-chloro-4-fluorophenyl)-2-hydroxybenzamide], in assay [1] (Homo sapiens, HEK293, 8 h), the IC50 turned out to be 1.41 ± 0.21 µM. Further, at Frizzled1-GFP, the “Fzd1-GFP internalization @12.5 μM” value is 3. `COc1cc(NC(=O)c2cc(Cl)ccc2O)ccc1[N+](=O)[O-]` [Compound 35, 5-chloro-2-hydroxy-N-(3-methoxy-4-nitrophenyl)benzamide] yielded an inhibition at 10 µM in assay [1] (Homo sapiens, HEK293, 8 h) of 40%. Regarding `O=C(Nc1ccc([N+](=O)[O-])c(N2CCOCC2)c1)c1cc(Cl)ccc1O` [Compound 34, 5-chloro-2-hydroxy-N-(3-morpholino-4-nitrophenyl)benzamide], in assay [1] (Homo sapiens, HEK293, 8 h), testing at 10 µM gave an inhibition of 40%. Turning to `O=C(Nc1cccc(C(F)(F)F)c1)c1cc(Cl)ccc1O` [Compound 9, 5-chloro-2-hydroxy-N-(3-(trifluoromethyl)phenyl)benzamide], in assay [1] (Homo sapiens, HEK293, 8 h), the IC50 is 0.89 ± 0.32 µM. Further, on Frizzled1-GFP, the “Fzd1-GFP internalization @12.5 μM” value is 5.

Consider `COc1cc(O)c(C(=O)Nc2ccc([N+](=O)[O-])cc2Cl)cc1OC` [Compound 46, N-(2-chloro-4-nitrophenyl)-2-hydroxy-4,5-dimethoxybenzamide], for which the “Inhibition Wnt/β-catenin transcription TopFlash, result in words” value in assay [1] (up to 12 μM) is listed as “No inhibit. up”. In the case of `O=C(Nc1ccc(C(F)(F)F)cc1F)c1cc(Cl)ccc1O` [Compound 10, 5-chloro-N-(2-fluoro-4-(trifluoromethyl)phenyl)-2-hydroxybenzamide], in assay [1] (Homo sapiens, HEK293, 8 h), the IC50 stood at 0.55 ± 0.11 µM. Also, the “Fzd1-GFP internalization @12.5 μM” value on Frizzled1-GFP is given as 5.

Turning to `CCCCCCCCOC(=O)Oc1ccc(Cl)cc1C(=O)Nc1ccc([N+](=O)[O-])cc1Cl` [Compound 72, 4-chloro-2-((2-chloro-4-nitrophenyl)carbamoyl)phenyl octyl carbonate], the IC50 in assay [1] (Homo sapiens, HEK293, 8 h) is 0.5 µM. `O=C(Nc1cccc(Cl)c1)c1cc(Cl)ccc1O` [Compound 12, 5-chloro-N-(3-chlorophenyl)-2-hydroxybenzamide]: in assay [1] (Homo sapiens, HEK293, 8 h), the IC50 was determined as 1.65 ± 0.12 µM. Moreover, the “Fzd1-GFP internalization @12.5 μM” value on Frizzled1-GFP stood at 5.

With `O=c1oc2ccc(Cl)cc2c(=O)n1-c1ccc(C(F)(F)F)cc1F` [Compound 76, 6-chloro-3-(2-fluoro-4-(trifluoromethyl)phenyl)-2H-benzo[e][1,3]oxazine-2,4(3H)-dione], the “Inhibition Wnt/β-catenin transcription TopFlash, % inhibition @ 1 μM” value in assay [1] worked out at 90% @ 1 μM. For the compound `O=C(c1ccccc1)c1ccc(NC(=O)c2cc(Cl)ccc2O)cc1` [Compound 6, N-(4-benzoylphenyl)-5-chloro-2-hydroxybenzamide], the IC50 in assay [1] (Homo sapiens, HEK293, 8 h) is 15 µM. At Frizzled1-GFP, the “Fzd1-GFP internalization @12.5 μM” value turned out to be 0. Regarding `Cc1ccc(S(=O)(=O)Nc2ccccc2C(=O)Nc2ccc([N+](=O)[O-])cc2)cc1` [C, 2-((4-methylphenyl)sulfonamido)-N-(4-nitrophenyl)benzamide, reference compound], the “Inhibition Wnt/β-catenin transcription TopFlash, % inhibition @ 1 μM” value in assay [1] came out at 47% inhibition. Regarding `O=C(CCCCCNC(=O)CCCCC1SCC2NC(=O)NC21)NCCCCCC(=O)NCCOCCOCCOc1cc([N+](=O)[O-])ccc1NC(=O)c1cc(Cl)ccc1O` (centres unmarked) [Compound 29, 5-chloro-2-hydroxy-N-(4-nitro-2-((10,17,24-trioxo-28-(2-oxohexahydro-1H-thieno[3,4-d]imidazol-4-yl)-3,6-dioxa-9,16,23-triazaoctacosyl)oxy)phenyl)benzamide], the IC50 in assay [1] (Homo sapiens, HEK293, 8 h) is greater than 12 µM. Turning to `Cc1cc([N+](=O)[O-])ccc1NC(=O)c1cc(Cl)ccc1O` [Compound 26, 5-chloro-2-hydroxy-N-(2-methyl-4-nitrophenyl)benzamide], the “Inhibition Wnt/β-catenin transcription TopFlash, % inhibition @ 3 μM” value in assay [1] (3 μM) amounted to 80% inhibition. As to `COc1cc(O)c(C(=O)Nc2ccc([N+](=O)[O-])cc2Cl)cc1Cl` [Compound 54, 5-chloro-N-(2-chloro-4-nitrophenyl)-2-hydroxy-4-methoxybenzamide], the “Inhibition Wnt/β-catenin transcription TopFlash, % inhibition @ 1 μM” value in assay [1] is reported as 70% inhibition.

`O=C(Nc1ccc([N+](=O)[O-])c(F)c1)c1cc(Cl)ccc1O` [Compound 32, 5-chloro-N-(3-fluoro-4-nitrophenyl)-2-hydroxybenzamide]: testing at 10 µM in assay [1] (Homo sapiens, HEK293, 8 h) gave an inhibition of 90%. For the compound `COc1cc(O)c(C(=O)Nc2ccc(OCc3ccccc3)c(Cl)c2)cc1OC` [Compound 47, N-(4-(benzyloxy)-3-chlorophenyl)-2-hydroxy-4,5-dimethoxybenzamide], in assay [1] (concentration not given), the “Inhibition Wnt/β-catenin transcription TopFlash, result in words” value is “stimulates”. Consider `O=C(Nc1ccc([N+](=O)[O-])cc1)c1cc(Cl)ccc1O` [B, 5-chloro-2-hydroxy-N-(4-nitrophenyl)benzamide, reference compound], for which, in assay [1], the IC50 was greater than 12 µM. As to `CCCCC/C=C\C/C=C\CCCCCCCC(=O)Oc1ccc(Cl)cc1C(=O)Nc1ccc([N+](=O)[O-])cc1Cl` [Compound 69, 4-chloro-2-((2-chloro-4-nitrophenyl)carbamoyl)phenyl (9Z,12Z)-octadeca-9,12-dienoate], in assay [1] (Homo sapiens, HEK293, 8 h), at 2 µM the inhibition was 85%. Same read-out and setting: the result for `O=C(Nc1ccc([N+](=O)[O-])cc1Cl)c1cc(-c2ccc(F)cc2F)ccc1O` [Compound 42, N-(2-chloro-4-nitrophenyl)-2′,4′-difluoro-4-hydroxy-[1,1′-biphenyl]-3-carboxamide] reads 90%. Turning to `CS(=O)(=O)Nc1ccc(Cl)cc1C(=O)Nc1ccc([N+](=O)[O-])cc1Cl` [Compound 51, 5-chloro-N-(2-chloro-4-nitrophenyl)-2-(methylsulfonamido)benzamide], the inhibition at 10 µM in assay [1] (Homo sapiens, HEK293, 8 h) worked out at 70%.

As to `CC(C)(C)OC(=O)CCC(=O)Oc1ccc(Cl)cc1C(=O)Nc1ccc([N+](=O)[O-])cc1Cl` [Compound 65, tert-butyl (4-chloro-2-((2-chloro-4-nitrophenyl)carbamoyl)phenyl) succinate], in assay [1] (0.5 μM), the “Inhibition Wnt/β-catenin transcription TopFlash, % inhibition @ 0.5 μM” value was 60% inhibition. Take `C=CCOc1cc([N+](=O)[O-])ccc1NC(=O)c1cc(Cl)ccc1O` [Compound 30, N-(2-(allyloxy)-4-nitrophenyl)-5-chloro-2-hydroxybenzamide]: the inhibition at 10 µM in assay [1] (Homo sapiens, HEK293, 8 h) was 98%.

For the origin of these results see patent US10905665B2, “Chemical modulators of signaling pathways and therapeutic use” (Duke University, priority 2015, dated 2021).
